Test results from paper PMC9933440 (Crystal Growth & Design, 2022).
In brackets after ≈: the same amount, converted by molar mass. Several values for one entry are separate records, joined by “and”; a condition that tells them apart may be missing. Equal values may be shown once. Read-outs that look alike come from different tables or passages of the source.

Key:
[1] = cited from earlier work
[2] = cited from earlier work; remark: listed apart in the source
[3] = cited from earlier work; remark: listed apart in the source
[4] = Solubility experiments in sodium phosphate buffer pH 6.5, 37 °C (HPLC); details: for dissolved PRM / dissolved MEL: highest dissolved concentration, sodium phosphate buffer pH 6.5, 37 °C
Procedure: Solubility experiments were conducted in sodium phosphate buffer solutions at pH 6.5 and 37 °C to simulate intestinal physiological conditions. For each experiment, an excess crystalline solid was sieved through a 300 μm sieve and introduced into a flask with a screw top containing 100 mL of the medium. The solution was stirred at 200 rpm using a magnetic stir bar for 48 h to reach the equilibrium state. […] After each sampling, the volume of the liquid removed from the suspension was not compensated. The withdrawn suspension was filtered through 0.2 μm nylon filters and diluted prior to high-performance liquid chromatography (HPLC) analysis. The solubility experiment for each crystal form was repeated in triplicate. After the last sample collection, the remaining solid material in the suspension was filtered, dried, and characterized by IR and PXRD.
A C18 HPLC column (YMC-Pack ODS-A column, 4.6 mm × 250 mm, 5 μm) with a flow rate of 1 mL min^–1 was employed, and the column temperature was set at 25 °C. The binary mobile phase consisted of acetonitrile and sodium phosphate buffer (pH 6.5) in a volume ratio of 25:75. The samples were diluted appropriately with the mobile phase, and the absorbance was measured at 347 nm.

[5] = cited from earlier work; remark: listed apart in the source
[6] = pKa (base) – pKa (acid)

Cc1cnc(NC(=O)C2=C(O)c3ccccc3S(=O)(=O)N2C)s1.O=C(O)CO [MEL glycolic acid]
bioavailability vs parent API [1]: no bioavailability advantage

CN1C(C(=O)Nc2ccccn2)=C(O)c2sc(Cl)cc2S1(=O)=O.O=C(O)CCCC(=O)O [LRM glutaric acid]
solubility vs parent API ([2]; in H2O): no solubility advantage in H2O

CN1C(C(=O)Nc2ccccn2)=C(O)c2sc(Cl)cc2S1(=O)=O.O=C(O)c1ccccc1O [LRM salicylic acid]
solubility vs parent API ([2]; in H2O): no solubility advantage in H2O

CN1C(C(=O)Nc2ccccn2)=C(O)c2ccccc2S1(=O)=O.OCCN(CCO)CCO [PRM triethanolamine]
bioavailability vs parent API [1]: higher bioavailability

CN1C(C(=O)Nc2ccccn2)=C(O)c2ccccc2S1(=O)=O.COC(=O)c1ccc(O)cc1 [PRM methylparaben]
IDR vs parent API ([3]; pH 1.2): no solubility and IDR advantages | dissolution rates in the sink condition ([3]; pH 1.2): superior dissolution rates

CN1C(C(=O)Nc2ccccn2)=C(O)c2ccccc2S1(=O)=O [PRM, Piroxicam]
dissolved PRM [4]: 0.39 mg mL^–1 and 0.39 ± 0.01 mg mL^–1 | time to highest solubility / maximum dissolved concentration / equilibrium ([4]; pH 6.5): 60 min | solubility thermodynamic at 48 h ([4]; pH 6.5, aqueous buffer): 140 µg/mL (≈ 423 µM)

Cc1cnc(NC(=O)C2=C(O)c3ccccc3S(=O)(=O)N2C)s1.O=C(O)c1ccc(O)cc1 [MEL 4-hydroxybenzoic acid]
solubility vs parent API ([2]; pH 6.5): higher solubility | bioavailability vs parent API (fold) [1]: 1.1–1.6 x

CN(C)c1ccncc1.CN1C(C(=O)Nc2ccccn2)=C(O)c2ccccc2S1(=O)=O [PRM-4DMP]
dissolved PRM [4]: 1.07 mg mL^–1 and 1.07 ± 0.01 mg mL^–1 | apparent solubility compared with the pure API ([4]; pH 6.5): higher solubility | dissolved PRM, times higher than that of the anhydrous PRM ([4]; pH 6.5, 37 °C): 2.8 times

CN1C(C(=O)Nc2ccccn2)=C(O)c2sccc2S1(=O)=O.O=C(O)c1ccccc1 [TNM benzoic acid]
solubility vs parent API ([2]; pH 7): no solubility advantage | IDR vs parent API (fold) ([3]; pH 7): 2 x

Cc1cnc(NC(=O)C2=C(O)c3ccccc3S(=O)(=O)N2C)s1.NC(CS)C(=O)O [MEL cysteine]
dissolution behavior vs parent API ([3]; pH 7.5): improved dissolution behavior at pH 7.5

CN1C(C(=O)Nc2ccccn2)=C(O)c2ccccc2S1(=O)=O.COc1cc(C=O)ccc1O [PRM vanillin]
solubility vs parent API ([2]; pH 1.2): no solubility and IDR advantages | IDR vs parent API ([3]; pH 1.2): no solubility and IDR advantages | dissolution rates in the sink condition ([3]; pH 1.2): superior dissolution rates

CN1C(C(=O)Nc2ccccn2)=C(O)c2sc(Cl)cc2S1(=O)=O.Cl [LRM HCl]
dissolution vs parent API (fold) ([3]; pH 7): improved dissolution at pH 7 (x 1.3–1.6)

CN(C)c1ccncc1.Cc1cnc(NC(=O)C2=C(O)c3ccccc3S(=O)(=O)N2C)s1 [MEL-4DMP]
dissolved MEL [4]: 0.85 ± 0.02 mg mL^–1 | time for which the supersaturation state is maintained ([4]; pH 6.5): more than 200 min | dissolved MEL, times higher than that of the pure MEL ([4]; pH 6.5, 37 °C): 10.2 times

CN1C(C(=O)Nc2ccccn2)=C(O)c2ccccc2S1(=O)=O.NS(=O)(=O)c1cc(C(=O)O)c(NCc2ccco2)cc1Cl [PRM furosemide]
stability under accelerated aging [5]: good stability under accelerated aging | thermal stability [5]: good thermal stability

CN1C(C(=O)Nc2ccccn2)=C(O)c2sccc2S1(=O)=O.Oc1cccc(O)c1O [TNM pyrogallol]
solubility vs parent API (fold) ([2]; pH 7): 5.8–10.1 x | IDR vs parent API (fold) ([3]; pH 7): 2.4–4.2 x

CN1C(C(=O)Nc2ccccn2)=C(O)c2ccccc2S1(=O)=O.NCCO [PRM ethanolamine]
bioavailability vs parent API [1]: higher bioavailability

CN(C)c1ccncc1 [4DMP, 4-dimethylaminopyridine]
ΔpKa for MEL ([6]; hydroxyl group of MEL): 8.61 | ΔpKa for PRM ([6]; hydroxyl group of PRM): 7.84

CN1C(C(=O)Nc2ccccn2)=C(O)c2sc(Cl)cc2S1(=O)=O.O=C(O)c1ccc(O)cc1 [LRM 4-hydroxy benzoic acid]
solubility vs parent API (fold) ([2]; in H2O): improved solubility in H2O (x 1.6–6.9)

CN1C(C(=O)Nc2ccccn2)=C(O)c2sc(Cl)cc2S1(=O)=O.CS(=O)(=O)O [LRM methanesulfonic acid]
dissolution vs parent API (fold) ([3]; pH 7): improved dissolution at pH 7 (x 1.3–1.6)

Cc1cnc(NC(=O)C2=C(O)c3ccccc3S(=O)(=O)N2C)s1.O=C(O)/C=C/C(=O)O [MEL fumaric acid]
bioavailability vs parent API [1]: no bioavailability advantage

CC(=O)Oc1ccccc1C(=O)O.Cc1cnc(NC(=O)C2=C(O)c3ccccc3S(=O)(=O)N2C)s1 [MEL Aspirin]
solubility vs parent API (fold) ([2]; pH 7.4): 44 x | bioavailability vs parent API (fold) [1]: 4.4 x

Cc1cnc(NC(=O)C2=C(O)c3ccccc3S(=O)(=O)N2C)s1.Nc1ccncc1 [MEL-4AP]
dissolved MEL [4]: 0.68 ± 0.05 mg mL^–1 | dissolved MEL, times higher than that of the pure MEL ([4]; pH 6.5, 37 °C): 8.1 times | time for which the supersaturation state is maintained ([4]; pH 6.5, 37 °C): > 300 min | apparent solubility compared with the pure API ([4]; pH 6.5, this work): higher solubility at pH 6.5

Cc1cnc(NC(=O)C2=C(O)c3ccccc3S(=O)(=O)N2C)s1.N=C(N)NCCCC(N)C(=O)O [MEL arginine]
dissolution behavior vs parent API ([3]; pH 7.5): improved dissolution behavior

CN1C(C(=O)Nc2ccccn2)=C(O)c2sc(Cl)cc2S1(=O)=O.CNC(=O)NC [LRM 1,3-dimethyl urea]
bioavailability vs parent API (fold) [1]: 2.5 x | IDR vs parent API (fold) ([3]; pH 1.2): 28 x | IDR vs parent API (fold) ([3]; pH 7.4): 19 x

CN1C(C(=O)Nc2ccccn2)=C(O)c2sccc2S1(=O)=O.Cl [TNM HCl]
solubility vs parent API ([2]; pH 7): no solubility and IDR advantages at pH 7 | IDR vs parent API ([3]; pH 7): no solubility and IDR advantages at pH 7

Cc1cnc(NC(=O)C2=C(O)c3ccccc3S(=O)(=O)N2C)s1.NCC(=O)O [MEL glycine]
dissolution behavior vs parent API ([3]; pH 7.5): improved dissolution behavior at pH 7.5

C1CNCCN1.CN1C(C(=O)Nc2ccccn2)=C(O)c2sccc2S1(=O)=O [TNM piperazine]
solubility vs parent API (fold) ([2]; pH 7): 5.5 x | IDR vs parent API (fold) ([3]; pH 7): 2.5 x

CN1C(C(=O)Nc2ccccn2)=C(O)c2sccc2S1(=O)=O.O=C(O)c1ccccc1O [TNM salicylic acid]
solubility vs parent API ([2]; pH 7): no solubility and IDR advantages at pH 7 | IDR vs parent API ([3]; pH 4.5): no IDR advantage at pH 4.5 and 6.8 | IDR vs parent API ([3]; pH 6.8): no IDR advantage at pH 4.5 and 6.8 | IDR vs parent API ([3]; pH 7): no solubility and IDR advantages at pH 7

CN1C(C(=O)Nc2ccccn2)=C(O)c2sccc2S1(=O)=O.O=C(O)CCC(=O)O [TNM succinic acid]
IDR vs parent API ([3]; pH 4.5): no IDR advantage at pH 4.5 and 6.8 | IDR vs parent API ([3]; pH 6.8): no IDR advantage at pH 4.5 and 6.8

CN1C(C(=O)Nc2ccccn2)=C(O)c2ccccc2S1(=O)=O.OCCNCCO [PRM diethanolamine]
bioavailability vs parent API [1]: higher bioavailability

CN1C(C(=O)Nc2ccccn2)=C(O)c2sc(Cl)cc2S1(=O)=O.N [LRM NH3]
dissolution vs parent API (fold) ([3]; pH 7): improved dissolution at pH 7 (x 1.3–1.6)

CN1C(C(=O)Nc2ccccn2)=C(O)c2ccccc2S1(=O)=O.Cc1nc(-c2ccc(OCC(C)C)c(C#N)c2)sc1C(=O)O [PRM febuxostat]
dissolution vs parent API (fold) ([3]; pH 6.8): 2.8 x

C1CNCCN1.CN1C(C(=O)Nc2ccccn2)=C(O)c2ccccc2S1(=O)=O.CN1C(C(=O)Nc2ccccn2)=C(O)c2ccccc2S1(=O)=O [PRM-PPZ]
dissolved PRM [4]: 0.43 mg mL^–1 and 0.43 ± 0.04 mg mL^–1 | apparent solubility compared with the pure API ([4]; pH 6.5): higher solubility | dissolved PRM, times higher than that of the anhydrous PRM ([4]; pH 6.5, 37 °C): 1.1 times

CN1C(C(=O)Nc2ccccn2)=C(O)c2sccc2S1(=O)=O.CS(=O)(=O)O [TNM methanesulfonic acid]
solubility vs parent API ([2]; pH 7): no solubility and IDR advantages at pH 7 | IDR vs parent API ([3]; pH 7): no solubility and IDR advantages at pH 7

CN1C(C(=O)Nc2ccccn2)=C(O)c2ccccc2S1(=O)=O.NC(N)=O [PRM urea]
solubility vs parent API [2]: no solubility advantage

CN1C(C(=O)Nc2ccccn2)=C(O)c2sc(Cl)cc2S1(=O)=O.O=C(O)c1ccccc1 [LRM benzoic acid]
solubility vs parent API ([2]; in H2O): no solubility advantage in H2O

CN1C(C(=O)Nc2ccccn2)=C(O)c2ccccc2S1(=O)=O.Nc1ccncc1 [PRM-4AP]
dissolved PRM [4]: 1.08 mg mL^–1 and 1.08 ± 0.02 mg mL^–1 | dissolved PRM, times higher than that of the anhydrous PRM ([4]; pH 6.5, 37 °C): 2.8 times | apparent solubility compared with the pure API ([4]; pH 6.5, this work): higher solubility

CN1C(C(=O)Nc2ccccn2)=C(O)c2sccc2S1(=O)=O.O=C1NS(=O)(=O)c2ccccc21 [TNM saccharin]
IDR vs parent API ([3]; pH 4.5): no IDR advantage at pH 4.5 and 6.8 | IDR vs parent API ([3]; pH 6.8): no IDR advantage at pH 4.5 and 6.8

Cc1cnc(NC(=O)C2=C(O)c3ccccc3S(=O)(=O)N2C)s1.O=C(O)CCc1ccccc1 [MEL hydrocinnamic acid]
bioavailability vs parent API [1]: no bioavailability advantage

CN1C(C(=O)Nc2ccccn2)=C(O)c2sccc2S1(=O)=O.O=C(O)CO [TNM glycolic acid]
IDR vs parent API ([3]; pH 4.5): no IDR advantage at pH 4.5 and 6.8 | IDR vs parent API ([3]; pH 6.8): no IDR advantage at pH 4.5 and 6.8

Cc1cnc(NC(=O)C2=C([O-])c3ccccc3S(=O)(=O)N2C)s1.O.[K+] [MEL KOH H2O]
bioavailability vs parent API ([1]; in vivo): no bioavailability advantage | dissolution behavior vs parent API ([3]; pH 5.6): improved dissolution behavior

CN1C(C(=O)Nc2ccccn2)=C(O)c2ccccc2S1(=O)=O.COc1cc(/C=C/C(=O)O)ccc1O [PRM ferulic acid]
IDR vs parent API (fold) ([3]; pH 2): 1.7 x
